# From the supplement of paper PMC11616607
# Columns and labels:
# Experiment in all cases: drug sensitivity score (DSS) from 5-point dose-response viability curve (DSS (area-under-curve based score)); higher = more sensitive (stronger growth inhibition or killing); extreme values may be limits of the assay
# Settings in all cases: exposure time: 72 h; concentration range: 5 concentrations over 10,000-fold range
# HOSE1C = system: HOSE1C
# Outline: (§1)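 Ovarian cancer and normal ovarian cell lines were tested in 384-well plates, with drugs dispensed acoustically (Echo 550) in DMSO or water at five concentrations covering a 10,000-fold range. After 1,500 cells per well were added, plates were incubated for 3 days at 37°C and 5% CO2, and viability was read by CellTiter-Glo luminescence on a PHERAstar FS. Breeze software gave a drug sensitivity score for each cell line and drug, where a higher score means greater sensitivity. A value of zero means no response.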
# OV90 = system: OV90
# Outline: as §1
# JHOS2 = system: JHOS2
# Outline: as §1
# HOSE2C = system: HOSE2C
# Outline: as §1
# OVCAR8 = system: OVCAR8
# Outline: as §1
# OVCAR4 = system: OVCAR4
# Outline: as §1
# OVCAR5 = system: OVCAR5
# Outline: as §1
# CAOV3 = system: CAOV3
# Outline: as §1
# COV318 = system: COV318
# Outline: as §1
# Ovsaho = system: Ovsaho
# Outline: as §1
# Kuramochi = system: Kuramochi
# Outline: as §1
# COV362 = system: COV362
# Outline: as §1
SMILES,drug sensitivity score (HOSE1C),drug sensitivity score (OV90),drug sensitivity score (JHOS2),drug sensitivity score (HOSE2C),drug sensitivity score (OVCAR8),drug sensitivity score (OVCAR4),drug sensitivity score (OVCAR5),drug sensitivity score (CAOV3),drug sensitivity score (COV318),drug sensitivity score (Ovsaho),drug sensitivity score (Kuramochi),drug sensitivity score (COV362)
CCC1=C[C@@H]2CN(C1)Cc1c([nH]c3ccccc13)[C@@](C(=O)OC)(c1cc3c(cc1OC)N(C)[C@H]1[C@@](O)(C(=O)OC)[C@H](OC(C)=O)[C@]4(CC)C=CCN5CC[C@]31[C@@H]54)C2 [Vinorelbine],30.2,26.5,9.7,32.1,27.6,12.7,19.5,16.4,8.1,19.9,12.6,8.9
CS(=O)(=O)c1ccc(C(=O)Nc2ccc(Cl)c(-c3ccccn3)c2)c(Cl)c1 [Vismodegib],3.8,0.1,0,0,0,0,0.1,0,0,0,0.1,0
CNC(=O)c1cccc(-c2ccc3c(N4CCOC[C@@H]4C)nc(N4CCOC[C@@H]4C)nc3n2)c1 [Vistusertib],14.5,15.1,7.7,10.3,10.2,11.5,13.3,10.2,10,15.4,11.5,2.8
CC[C@@H]1C(=O)N(C)c2cnc(Nc3ccc(C(=O)N[C@H]4CC[C@H](N5CCN(CC6CC6)CC5)CC4)cc3OC)nc2N1C(C)C [Volasertib],9.7,11.5,7.1,6.3,15.5,4.4,12.2,13.1,4.1,10.4,7.3,3.2
O=C(CCCCCCC(=O)Nc1ccccc1)NO [Vorinostat],15.9,8,5.3,10.7,9.7,4.7,10.8,8.6,4.3,2.7,4.7,3.2
Oc1nc(-c2ccc(C(F)(F)F)cc2)nc2c1CSCC2 [XAV-939],0,0,0.1,0,0,3.6,0,0,0,2.3,1.5,0
FC(F)c1nc2ccccc2n1-c1nc(N2CCOCC2)nc(N2CCOCC2)n1 [ZSTK474],8.8,5.7,4,10.6,8.9,7.7,11,8,7.8,10.6,17.4,4.4
